{
  "source": "paper PMC10776879",
  "about": "“In vitro screening of topical formulation excipients for epithelial toxicity in cancerous and non-cancerous cell lines” (EXCLI Journal, 2023)",
  "key": {"[1]": {"system": "human cell lines (WM164, WM1366, D24, HaCaT, FB)", "assay": "MTT and CV cytotoxicity, statements over all tested cell lines", "format": "cell-based", "experimental": "(§1) Cells were seeded into the 96-well cell culture plates in 100 μl of complete culture medium at the initial density of 2x10^4 (cells/ml). Cells were incubated under 5 % CO2 at 37 °C for 24 hours for adhering to the wells and medium was then replaced with 100 μl of fresh medium containing excipient solution at the required final concentration. Each concentration was tested in minimum of 5 replicates and control cells were exposed to the culture medium only.\n(§2) After cell incubation for 24 h, the excipient-containing medium was removed, and 100 μl of MTT in PBS (5 mg/ml) diluted 1:10 in medium was then added in the dark. Plates were further incubated for 2-3 h, after which time the medium was removed and the purple formazan product was dissolved by adding 200 μl of DMSO to each well. Plates were then placed in a shaker for 5 min at room temperature and the absorbance of the resulting solutions was measured at 570 nm using a microplate reader (Multiskan™ FC Microplate Photometer). The effect of each treatment was calculated as the percentage of tetrazolium salt reduction by viable cells against the negative control (cells treated with culture medium only).\n(§3) Fixed cells were stained with crystal violet dye solution to screen cell viability under treatment conditions. Cells are fixed by 4 % (v/v) paraformaldehyde in PBS for 10 minutes. Crystal violet assay of 0.05 % (v/v) is prepared by 1:4 dilution of the crystal violet stock solution (v/v) in 4 % (v/v) paraformaldehyde. The fixed cells were washed twice with PBS and covered with 250 µl crystal violet working solution. The plates were placed on a bench rocker with medium frequency (20 oscillations per minute) at room temperature for 20 minutes. The plates were emptied and washed under indirect stream of tap water for three times and inverted on filter paper. The plates were taped gently on the paper to remove any remaining liquid and air dried with no lid for minimum of 2 hr at room temperature. After the plates were photographed, blue dye was dissolved in DMSO and the optical density of each well was measured at 570 nm (OD570) with a plate reader (Multiskan™ FC Microplate Photometer). The effect of each treatment was calculated as the percentage of crystal viable staining of surviving attached cells, against the negative control (cells treated with culture medium only).\n(§4) To assess the excipients' cytotoxicity, the dose-response effect of each excipient was measured against the cell lines. The cytotoxicity value for each concentration of the excipients was expressed as percentage of viability against the untreated control wells (the optical density of untreated cells was set at 100 % viability) to construct dose-response curves.\nThe cytotoxicity of the excipients was expressed in terms of an IC50 values (concentration causing 50 % death of the cell population) (Goldberg and Frazier, 1989[37]). […] All IC50 values were expressed as µg/ml. The percentage viability was calculated as follows: […]"}, "D24 human melanoma cells [2]": {"system": "D24 human melanoma cells", "assay": "MTT cell viability assay", "format": "cell-based", "conditions": "24 h exposure", "experimental": "as §1, §2, §4\n(§5) All IC50 values were expressed as µg/ml. The percentage viability was calculated as follows: […]"}, "[3]": {"system": "WM1366 human melanoma cells", "assay": "MTT cell viability assay", "format": "cell-based", "conditions": "24 h exposure", "experimental": "as §1, §2, §4, §5"}, "[4]": {"system": "HaCaT human keratinocytes", "assay": "MTT cell viability assay", "format": "cell-based", "conditions": "24 h exposure", "experimental": "as §1, §2, §4, §5"}, "[5]": {"system": "WM164 human melanoma cells", "assay": "MTT cell viability assay", "format": "cell-based", "conditions": "24 h exposure", "experimental": "as §1, §2, §4, §5"}, "D24 human melanoma cells [6]": {"system": "D24 human melanoma cells", "assay": "Crystal violet (CV) cell viability assay", "format": "cell-based", "conditions": "24 h exposure", "experimental": "as §3, with “Cells were seeded into the 96-well cell culture plates in 100 μl of complete culture medium at the initial density of 2x10^4 (cells/ml). Cells were incubated under 5 % CO2 at 37 °C for 24 hours for adhering to the wells and medium was then replaced with 100 μl of fresh medium containing excipient solution at the required final concentration. Each concentration was tested in minimum of 5 replicates and control cells were exposed to the culture medium only. Fixed” for “Fixed”, “only). To assess the excipients' cytotoxicity, the dose-response effect of each excipient was measured against the cell lines. The cytotoxicity value for each concentration of the excipients was expressed as percentage of viability against the untreated control wells (the optical density of untreated cells was set at 100 % viability) to construct dose-response curves. […] All IC50 values were expressed as µg/ml. The percentage viability was calculated as follows: […]” for “only).”"}, "[7]": {"system": "WM1366 human melanoma cells", "assay": "Crystal violet (CV) cell viability assay", "format": "cell-based", "conditions": "24 h exposure", "experimental": "as §3, with “Cells were seeded into the 96-well cell culture plates in 100 μl of complete culture medium at the initial density of 2x10^4 (cells/ml). Cells were incubated under 5 % CO2 at 37 °C for 24 hours for adhering to the wells and medium was then replaced with 100 μl of fresh medium containing excipient solution at the required final concentration. Each concentration was tested in minimum of 5 replicates and control cells were exposed to the culture medium only. Fixed” for “Fixed”, “only). To assess the excipients' cytotoxicity, the dose-response effect of each excipient was measured against the cell lines. The cytotoxicity value for each concentration of the excipients was expressed as percentage of viability against the untreated control wells (the optical density of untreated cells was set at 100 % viability) to construct dose-response curves. […] All IC50 values were expressed as µg/ml. The percentage viability was calculated as follows: […]” for “only).”"}, "[8]": {"system": "HaCaT human keratinocytes", "assay": "Crystal violet (CV) cell viability assay", "format": "cell-based", "conditions": "24 h exposure", "experimental": "as §3, with “Cells were seeded into the 96-well cell culture plates in 100 μl of complete culture medium at the initial density of 2x10^4 (cells/ml). Cells were incubated under 5 % CO2 at 37 °C for 24 hours for adhering to the wells and medium was then replaced with 100 μl of fresh medium containing excipient solution at the required final concentration. Each concentration was tested in minimum of 5 replicates and control cells were exposed to the culture medium only. Fixed” for “Fixed”, “only). To assess the excipients' cytotoxicity, the dose-response effect of each excipient was measured against the cell lines. The cytotoxicity value for each concentration of the excipients was expressed as percentage of viability against the untreated control wells (the optical density of untreated cells was set at 100 % viability) to construct dose-response curves. […] All IC50 values were expressed as µg/ml. The percentage viability was calculated as follows: […]” for “only).”"}, "[9]": {"system": "WM164 human melanoma cells", "assay": "Crystal violet (CV) cell viability assay", "format": "cell-based", "conditions": "24 h exposure", "experimental": "as §3, with “Cells were seeded into the 96-well cell culture plates in 100 μl of complete culture medium at the initial density of 2x10^4 (cells/ml). Cells were incubated under 5 % CO2 at 37 °C for 24 hours for adhering to the wells and medium was then replaced with 100 μl of fresh medium containing excipient solution at the required final concentration. Each concentration was tested in minimum of 5 replicates and control cells were exposed to the culture medium only. Fixed” for “Fixed”, “only). To assess the excipients' cytotoxicity, the dose-response effect of each excipient was measured against the cell lines. The cytotoxicity value for each concentration of the excipients was expressed as percentage of viability against the untreated control wells (the optical density of untreated cells was set at 100 % viability) to construct dose-response curves. […] All IC50 values were expressed as µg/ml. The percentage viability was calculated as follows: […]” for “only).”"}, "[10]": {"system": "primary skin fibroblasts (FB)", "assay": "MTT cell viability assay", "format": "cell-based, human", "conditions": "24 h exposure", "experimental": "as §1, §2, §4, §5"}, "[11]": {"system": "primary skin fibroblasts (FB)", "assay": "Crystal violet (CV) cell viability assay", "format": "cell-based, human", "conditions": "24 h exposure", "experimental": "as §3, with “Cells were seeded into the 96-well cell culture plates in 100 μl of complete culture medium at the initial density of 2x10^4 (cells/ml). Cells were incubated under 5 % CO2 at 37 °C for 24 hours for adhering to the wells and medium was then replaced with 100 μl of fresh medium containing excipient solution at the required final concentration. Each concentration was tested in minimum of 5 replicates and control cells were exposed to the culture medium only. Fixed” for “Fixed”, “only). To assess the excipients' cytotoxicity, the dose-response effect of each excipient was measured against the cell lines. The cytotoxicity value for each concentration of the excipients was expressed as percentage of viability against the untreated control wells (the optical density of untreated cells was set at 100 % viability) to construct dose-response curves. […] All IC50 values were expressed as µg/ml. The percentage viability was calculated as follows: […]” for “only).”"}},
  "note": "“Also recorded” adds a separate entry of the source.",
  "data": [
    {"substance": "Propylene glycol dicaprylocaprate [Labrafac®]", "values": [
      {"measurement": "Cytotoxicity (result in words)", "setting": "[1]; all cell lines, at the applied concentrations, 24 h", "result": "non-toxic; also recorded: did not induce any reduction in cell viability; also recorded: caused no toxicity to any cell lines; also recorded: No damaging effects on cell growth"},
      {"measurement": "Irritancy ranking", "setting": "[1]; rank by MTT and CV IC50 over all cell lines, 1 = most cytotoxic", "result": 5},
      {"measurement": "IC50 (μg/ml) [Mean, Range] D24, MTT", "setting": "D24 human melanoma cells [2]", "result": "> Max Conc."},
      {"measurement": "IC50 (μg/ml) [Mean, Range] WM1366, MTT", "setting": "[3]", "result": "> Max Conc."},
      {"measurement": "IC50 (μg/ml) [Mean, Range] HaCaT, MTT", "setting": "[4]", "result": "> Max Conc."},
      {"measurement": "IC50 (μg/ml) [Mean, Range] WM164, MTT", "setting": "[5]", "result": "> Max Conc."},
      {"measurement": "IC50 (μg/ml) [Mean, Range] D24, CV", "setting": "D24 human melanoma cells [6]", "result": "> Max Conc."},
      {"measurement": "IC50 (μg/ml) [Mean, Range] WM1366, CV", "setting": "[7]", "result": "> Max Conc."},
      {"measurement": "IC50 (μg/ml) [Mean, Range] HaCaT, CV", "setting": "[8]", "result": "> Max Conc."},
      {"measurement": "IC50 (μg/ml) [Mean, Range] WM164, CV", "setting": "[9]", "result": "> Max Conc."},
      {"measurement": "IC50 (μg/ml) [Mean, Range] FB, MTT", "setting": "[10]", "result": "> Max Conc."},
      {"measurement": "IC50 (μg/ml) [Mean, Range] FB, CV", "setting": "[11]", "result": "> Max Conc."}
    ]}
  ]
}
